Results taken from US11384078B2, “5,6-fused-bicyclic compounds and compositions for the treatment of parasitic diseases” (NOVARTIS AG, priority 2017, dated 2022).
Where two headings read alike, the source gives them in different places.

Experiments:
Type in all cases: cell-based
[1] = test system: Trypanosoma cruzi amastigotes cultured in 3T3 fibroblast cells; assay: Assay for growth inhibition of kinetoplastid parasite Trypanosoma cruzi (beta-galactosidase Tulahuen strain, CPRG readout); conditions: Trypanosoma cruzi, Fibroblast, T. cruzi amastigotes in 3T3 fibroblast cells; read-out: Buckner infectious T. cruzi EC50
Summary of the method: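 3T3 fibroblasts (1,000 cells/well) plated overnight, treated with compound in DMSO, then infected with 10,000 Lac-Z-expressing Tulahuen trypomastigotes. After 6 days, 0.6 mM CPRG with 0.6% NP-40 added for 2 h at room temperature; absorbance gives relative intracellular amastigote numbers. Benznidazole and nifurtimox serve as positive controls.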

[2] = test system: Leishmania donovani axenic amastigote; assay: In vitro assay for growth inhibition of Leishmania donovani axenic amastigote (Cell TiterGlo luminescence); conditions: Leishmania donovani, L. donovani axenic amastigotes in vitro; read-out: L. donovani amastigotes EC50
Summary of the method: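 Compound-treated wells received 9600 axenic amastigotes in RPMI 1640-based medium at pH 5.5 (37 °C, 5% CO2). Growth measured as ATP luminescence (CellTiter-Glo) after 2-day incubation; DMSO and reference compounds served as controls.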

[3] = test system: L. donovani HU3 strain in mouse peritoneal macrophages; assay: Assay for inhibition of parasitemia of Leishmania donovani in mouse macrophages (SYBR Green nuclei count, high-content imaging); conditions: Leishmania donovani, Peritoneal macrophage, L. donovani in mouse peritoneal macrophages; read-out: L. donovani in Mouse Macrophages EC50
Summary of the method: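 Parasite numbers were counted from SYBR Green-stained nuclei imaged by high-content microscopy after paraformaldehyde fixation and Triton permeabilization. Before this, compound was applied for 5 days at 37° C to BALB/c peritoneal macrophages (2×10^4/well) that had been exposed 24 h to 4×10^5 L. donovani HU3 amastigotes harvested from infected mouse spleens.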

[4] = test system: Trypanosoma brucei brucei (Lister 427) strain; assay: Assay for growth inhibition against Trypanosoma brucei brucei (Cell TiterGlo ATP luminescence); conditions: T. brucei brucei (Lister 427), read-out: T. Brucei (HAT) EC50
Summary of the method: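 Growth read-out is cellular ATP by CellTiter-Glo luminescence, measured 30 min after reagent addition, following 2-day incubation at 37 °C in CO2. Parasites (10,000/mL, HMI-9 plus 10% FBS and 10% serum plus) faced 10 threefold dilutions in duplicate; IC50 taken as 50% growth inhibition versus untreated.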

Row | Structure (SMILES) | EC50 [1] | EC50 [2] | EC50 [3] | EC50 ([4]; Trypanosoma brucei) | EC50 [4]
1 | O=C(Nc1ccc(F)c(-n2cc3cc(Cl)cnc3n2)c1)N1CC(F)C1 [Compound 276, N-(3-{5-chloro-2H-pyrazolo[3,4-b]pyridin-2-yl}-4-fluorophenyl)-3-fluoroazetidine-1-carboxamide] | 21 nM | 29 nM | 100 nM | 33 nM | –
2 | Cc1nc(CO)c(C(=O)Nc2ccc(F)c(-n3cc4cc(-c5ncccc5C)cnc4n3)c2)o1 [Compound 277, N-(4-fluoro-3-(5-(3-methylpyridin-2-yl)-2H-pyrazolo[3,4-b]pyridin-2-yl)phenyl)-4-(hydroxymethyl)-2-methyloxazole-5-carboxamide] | 144 nM | 40 nM | 138 nM | 82 nM | –
3 | O=C(Nc1ccnc(-n2cc3cc(N4CC(F)(F)C4)cnc3n2)c1)N1CCC1 [Compound 280, N-(2-(5-(3,3-difluoroazetidin-1-yl)-2H-pyrazolo[3,4-b]pyridin-2-yl)pyridin-4-yl)azetidine-1-carboxamide] | 48 nM | 33 nM | 28 nM | 40 nM | –
4 | O=C(Nc1ccnc(-n2cc3cc(-c4ccccn4)cnc3n2)c1)N1CC(F)(F)C1 [Compound 281, 3,3-difluoro-N-(2-(5-(pyridin-2-yl)-2H-pyrazolo[3,4-b]pyridin-2-yl)pyridin-4-yl)azetidine-1-carboxamide] | 15 nM | 9 nM | 26 nM | 14 nM | –
5 | O=C(Nc1ccnc(-n2cc3cc(N4CC5(CC5)C4)cnc3n2)c1)N1CCC1 [Compound 282, N-[2-(5-{5-azaspiro[2.3]hexan-5-yl}-2H-pyrazolo[3,4-b]pyridin-2-yl)pyridin-4-yl}azetidine-1-carboxamide] | 40 nM | 34 nM | 70 nM | 27 nM | –
6 | O=C(Nc1ccc(Cl)c(-n2cc3cc(-c4ccccn4)cnc3n2)c1)N1CC(F)C1 [Compound 283, N-{4-chloro-3-[5-(pyridin-2-yl)-2H-pyrazolo[3,4-b]pyridin-2-yl]phenyl}-3-fluoroazetidine-1-carboxamide] | 5 nM | 7 nM | 19 nM | 8 nM | –
7 | O=C(Nc1ccc(Cl)c(-n2cc3cc(N4CC(F)(F)C4)cnc3n2)c1)N1CCC1 [Compound 284, N-{4-chloro-3-[5-(3,3-difluoroazetidin-1-yl)-2H-pyrazolo[3,4-b]pyridin-2-yl]phenyl}azetidine-1-carboxamide] | 15 nM | 27 nM | 56 nM | 15 nM | –
8 | O=C(Nc1ccc(Cl)c(-n2cc3cc(-c4ccccn4)cnc3n2)c1)N1CCC1 [Compound 285, N-{4-chloro-3-[5-(pyridin-2-yl)-2H-pyrazolo[3,4-b]pyridin-2-yl]phenyl}azetidine-1-carboxamide] | 3 nM | 4 nM | 9 nM | 4 nM | –
9 | O=C(Nc1ccc(Cl)c(-n2cc3cc(N4CC5(CC5)C4)cnc3n2)c1)N1CCC1 [Compound 286, N-[3-(5-{5-azaspiro[2.3]hexan-5-yl}-2H-pyrazolo[3,4-b]pyridin-2-yl)-4-chlorophenyl]azetidine-1-carboxamide] | 14 nM | 25 nM | 47 nM | 30 nM | –
10 | O=C(Nc1cccc(-n2cc3cc(N4CC5(CC5)C4)cnc3n2)c1)N1CCC1 [Compound 287, N-[3-(5-{5-azaspiro[2.3]hexan-5-yl}-2H-pyrazolo[3,4-b]pyridin-2-yl)phenyl]azetidine-1-carboxamide] | 21 nM | 21 nM | 30 nM | 10 nM | –
11 | O=C(Nc1ccc(F)c(-n2cc3cc(N4CC(F)(F)C4)cnc3n2)c1)N1CCC1 [Compound 290, N-{3-[5-(3,3-difluoroazetidin-1-yl)-2H-pyrazolo[3,4-b]pyridin-2-yl]-4-fluorophenyl)azetidine-1-carboxamide] | 4 nM | 7 nM | 4 nM | – | 4 nM
12 | O=C(Nc1ccc(F)c(-n2cc3cc(N4CC(F)C4)cnc3n2)c1)N1CC(F)C1 [Compound 291, 3-fluoro-N-{4-fluoro-3-[5-(3-fluoroazetidin-1-yl)-2H-pyrazolo[3,4-b]pyridin-2-yl]phenyl}azetidine-1-carboxamide] | 5 nM | 10 nM | 5 nM | – | 5 nM
13 | O=C(Nc1ccc(F)c(-n2cc3cc(N4CC(F)C4)cnc3n2)c1)N1CCC1 [Compound 292, N-{4-fluoro-3-[5-(3-fluoroazetidin-1-yl)-2H-pyrazolo[3,4-b]pyridin-2-yl]phenyl}azetidine-1-carboxamide] | 3 nM | 5 nM | 8 nM | – | 5 nM
14 | O=C(Nc1ccc(F)c(-n2cc3cc(C4CCNCC4)cnc3n2)c1)N1CC(F)C1 [Compound 293, 3-fluoro-N-{4-fluoro-3-[5-(piperidin-4-yl)-2H-pyrazolo[3,4-b]pyridin-2-yl]phenyl}azetidine-1-carboxamide] | 1210 nM | 6820 nM | 17600 nM | 167 nM | –
15 | O=C(Nc1ccc(F)c(-n2cc3cc(-c4cnccn4)cnc3n2)c1)N1CC(F)C1 [Compound 294, 3-fluoro-N-{4-fluoro-3-[5-(pyrazin-2-yl)-2H-pyrazolo[3,4-b]pyridin-2-yl]phenyl}azetidine-1-carboxamide] | 5 nM | 4 nM | 4 nM | 5 nM | –
16 | O=C(Nc1ccc(F)c(-n2cc3cc(-c4c[nH]cn4)cnc3n2)c1)N1CC(F)C1 [Compound 295, 3-fluoro-N-{4-fluoro-3-[5-(1H-imidazol-4-yl)-2H-pyrazolo[3,4-b]pyridin-2-yl]phenyl}azetidine-1-carboxamide] | 4290 nM | 292 nM | 1970 nM | 38 nM | –
17 | O=C(Nc1ccc(F)c(-n2cc3cc(C4CCN(Cc5ccccc5)CC4)cnc3n2)c1)N1CC(F)C1 [Compound 296, N-{3-[5-(1-benzylpiperidin-4-yl)-2H-pyrazolo[3,4-b]pyridin-2-yl]-4-fluorophenyl}-3-fluoroazetidine-1-carboxamide] | 5 nM | 216 nM | 2 nM | 5 nM | –
18 | O=C(Nc1ccc(F)c(-n2cc3cc(N4CC(F)(F)C4)cnc3n2)c1)N1CC(F)C1 [Compound 298, N-{3-[5-(3,3-difluoroazetidin-1-yl)-2H-pyrazolo[3,4-b]pyridin-2-yl]-4-fluorophenyl}-3-fluoroazetidine-1-carboxamide] | 4 nM | 14 nM | 4 nM | 4 nM | –
19 | O=C(Nc1ccc(F)c(-n2cc3cc(N4CC(F)(F)C4)cnc3n2)c1)N1CC(F)(F)C1 [Compound 299, N-{3-[5-(3,3-difluoroazetidin-1-yl)-2H-pyrazolo[3,4-b]pyridin-2-yl]-4-fluorophenyl}-3,3-difluoroazetidine-1-carboxamide] | 14 nM | 29 nM | 7 nM | 5 nM | –
20 | O=C(Nc1ccc(F)c(-n2cc3cc(N4CC(F)(F)C4)cnc3n2)c1)N1CC[C@@H](F)C1 [Compound 300, (3R)-N-{3-[5-(3,3-difluoroazetidin-1-yl)-2H-pyrazolo[3,4-b]pyridin-2-yl]-4-fluorophenyl}-3-fluoropyrrolidine-1-carboxamide] | 4 nM | 22 nM | 6 nM | 3 nM | –
21 | Cn1cnc(-c2cnc3nn(-c4cc(NC(=O)N5CC(F)C5)ccc4F)cc3c2)c1 [Compound 301, 3-fluoro-N-{4-fluoro-3-[5-(1-methyl-1H-imidazol-4-yl)-2H-pyrazolo[3,4-b]pyridin-2-yl]phenyl}azetidine-1-carboxamide] | 472 nM | 73 nM | 97 nM | 8 nM | –
22 | O=C(Nc1ccc(F)c(-n2cc3cc(N4CC(F)C4)cnc3n2)c1)N1CC[C@@H](F)C1 [Compound 302, (3R)-3-fluoro-N-{4-fluoro-3-[5-(3-fluoroazetidin-1-yl)-2H-pyrazolo[3,4-b]pyridin-2-yl]phenyl}pyrrolidine-1-carboxamide] | 2 nM | 118 nM | 15 nM | 5 nM | –
23 | O=C(Nc1ccc(F)c(-n2cc3cc(N4CC(F)C4)cnc3n2)c1)N1CC(F)(F)C1 [Compound 303, 3,3-difluoro-N-{4-fluoro-3-[5-(3-fluoroazetidin-1-yl)-2H-pyrazolo[3,4-b]pyridin-2-yl]phenyl}azetidine-1-carboxamide] | 10 nM | 490 nM | 15 nM | 5 nM | –
24 | Cn1cc(-c2cnc3nn(-c4cc(NC(=O)N5CC(F)C5)ccc4F)cc3c2)cn1 [Compound 304, 3-fluoro-N-{4-fluoro-3-[5-(1-methyl-1H-pyrazol-4-yl)-2H-pyrazolo[3,4-b]pyridin-2-yl]phenyl}azetidine-1-carboxamide] | 30 nM | 4 nM | 3 nM | 5 nM | –
